The source of these data is US10479807B2, “Silylated pyrimidine prodrugs and methods of their use” (priority 2014, dated 2019).

Where two headings read alike, the source gives them in different places.

For one data set, the system named is L1210. The experiment in a line: In vitro cytotoxicity, leukemia. It is filed as cell-based. The conditions noted are these: Mus musculus.
In another data set the test system is HCT-116. The experiment in a line: In vitro cytotoxicity, colon. It is filed as cell-based. The conditions noted are these: Homo sapiens, HCT-116, read-out: In vitro cytotoxicity IC50, Colon HCT-116.
Data set [1] in a line: Release of 5-azacytidine from prodrug by hydrolysis in PBS. It is filed as physicochemical. The conditions noted are these: PBS at room temperature (20° C.).
Another data set concerns MDA-MB-231. The experiment in a line: In vitro cytotoxicity, breast. In kind it is cell-based. The conditions noted are these: Homo sapiens, MDA-MB-231, read-out: In vitro cytotoxicity IC50, Breast MDA-MB-231.
For data set [2] the following is noted: trifluridine alone; cited from earlier work.
For the next data set, the system named is mice. The experiment in a line: Toxicity of formulated Compound XI in mice. In kind it is in vivo. The conditions noted are these: nanoemulsion, intravenously on three consecutive days, doses up to 60 mg/kg, observed at the end of one week. Here is the method: Compound XI was successfully formulated in a nanoemulsion at a concentration of 3 mg/ml. The nanoemulsion has an oil phase consisting of an injectable oil and lecithin and an aqueous phase comprising a tonicity adjuster, a stabilizer and water. The emulsions are of oil-in-water type with the mean oil droplets less than 100 nm. Each vehicle is at neutral pH (5-7) and about isotonic. The toxicity of formulated Compound XI was tested in mice. Mice were injected intravenously on three consecutive days with Compound XI at doses of up to 60 mg/kg and observed at the end of one week.

In general, IC50 refers to the concentration that gives 50% inhibition. In general, half-life refers to the time needed for the level to fall by half in the phase considered.

Consider `Nc1ncn([C@@H]2O[C@H](CO)[C@@H](O)[C@H]2O)c(=O)n1` [5-azacyctidine, 5-azacytidine, reference compound], for which the IC50 in the data set on L1210 (L1210 leukemia, read-out: In vitro cytotoxicity IC50, Leukemia L1210) was 1700 to 2400 nM.
Consider `C[Si](C)(C)OC[C@H]1O[C@@H](n2cnc(N)nc2=O)[C@@H](O[Si](C)(C)C)C1O[Si](C)(C)C` (stereo partly shown) [NUC025, 2′,3′,5′-Tri(trimethylsilyl)-5-azacytidine], for which the IC50 with HCT-116 came to 1080 nM; in the data set on L1210 (L1210, read-out: In vitro cytotoxicity IC50, Leukemia L1210), 1180 nM; with MDA-MB-231, 3280 nM. For the same compound, in data set [1], the “Active drug (5-azacytidine) recovered by hydrolysis” value was “approximately 80%”.
With `O=c1[nH]c(=O)n([C@H]2C[C@H](O)[C@@H](CO)O2)cc1C(F)(F)F` [Trifluridine, 5-trifluorothymidine], the half-life in data set [2] was 12 min.
In the case of `C[Si](C)(C)OC[C@H]1O[C@@H](n2cnc(N)nc2=O)C(F)(F)C1O[Si](C)(C)C` (stereo partly shown) [Compound XI, 2′,2′-Difluoro-5-azadeoxycytidine-trimethylsilyl], the “Toxicity as measured by weight loss” value with mice was “No evidence of toxicity”.
